Experimental findings from patent publication US20260028423A1, “PREDICTION OF AN INCREASE OF DPP3 IN A PATIENT WITH SEPTIC SHOCK” (4TEEN4 Pharmaceuticals GmbH, priority 2022, published 2026) are described below.

“Also recorded” adds a separate entry of the source.

The target in experiment [1] is T1, Recombinant GST-tagged hDPP3 (Homo sapiens, UniProt Q9NY33).
T1 construct: purchased USBio (United States Biological, Salem, MA, USA)
T1 sequence (Q9NY33 1-737): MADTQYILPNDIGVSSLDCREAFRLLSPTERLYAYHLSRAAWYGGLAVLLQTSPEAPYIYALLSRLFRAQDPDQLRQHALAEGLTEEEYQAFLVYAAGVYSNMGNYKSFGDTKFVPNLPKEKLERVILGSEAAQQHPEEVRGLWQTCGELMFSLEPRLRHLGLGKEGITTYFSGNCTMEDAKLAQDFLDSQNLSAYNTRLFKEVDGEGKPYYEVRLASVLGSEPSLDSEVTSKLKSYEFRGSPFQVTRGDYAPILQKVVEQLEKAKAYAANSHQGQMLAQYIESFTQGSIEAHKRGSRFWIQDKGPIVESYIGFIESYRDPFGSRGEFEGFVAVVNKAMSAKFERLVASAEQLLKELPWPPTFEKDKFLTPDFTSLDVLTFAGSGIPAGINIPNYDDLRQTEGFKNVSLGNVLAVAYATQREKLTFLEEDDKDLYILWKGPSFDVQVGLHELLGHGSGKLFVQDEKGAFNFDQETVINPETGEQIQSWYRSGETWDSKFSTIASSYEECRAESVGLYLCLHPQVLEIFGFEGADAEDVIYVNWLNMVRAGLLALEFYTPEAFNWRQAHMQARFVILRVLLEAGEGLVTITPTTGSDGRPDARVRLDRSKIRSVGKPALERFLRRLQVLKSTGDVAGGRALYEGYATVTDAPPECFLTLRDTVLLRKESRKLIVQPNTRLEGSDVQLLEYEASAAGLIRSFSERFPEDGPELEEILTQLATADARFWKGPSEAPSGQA
Nature of the experiment: hDPP3 binding assay (labelled antibody, immobilized antigen, RLU). As to conditions: immobilized GST-hDPP3 1 μg/well. The protocol: To analyze the capability of DPP3/immunization peptide binding by the different antibodies and antibody clones a binding assay was performed:
Solid phase: Recombinant GST-tagged hDPP3 (SEQ ID NO. 36) or a DPP3 peptide (immunization peptide, SEQ ID NO. 37) was immobilized onto a high binding microtiter plate surface (96-Well polystyrene microplates, Greiner Bio-One international AG, Austria, 1 μg/well in coupling buffer [50 mM Tris, 100 mM NaCl, pH7,8], 1 h at RT). After blocking with 5% bovine serum albumin, the microplates were vacuum dried.
Labelling procedure (tracer): 100 μg (100 μl) of the different antiDPP3 antibodies (detection antibody, 1 mg/ml in PBS, pH 7.4) were mixed with 10 μl acridinium NHS-ester (1 mg/ml in acetonitrile, InVent GmbH, Germany; EP 0 353 971) and incubated for 30 min at room temperature. […] The final concentration was approx. 5-7*10^6 relative light units (RLU) of labelled compound (approx. 20 ng labelled antibody) per 200 μl. acridinium ester chemiluminescence was measured by using a Centro LB 960 luminometer (Berthold Technologies GmbH & Co. KG).
hDPP3 binding assay: the plates were filled with 200 μl of labelled and diluted detection antibody (tracer) and incubated for 2-4 h at 2-8° C. […] Well-bound chemiluminescence was measured by using the Centro LB 960 luminometer (Berthold Technologies GmbH & Co. KG).

The test system of the next experiment is Male Wistar rats. Nature of the experiment: CLP model of septic shock, sepsis-induced heart failure rats. The settings on record: vs CLP+PBS. Type of experiment: in vivo, rat. How it is done:
Male Wistar rats (2-3 months, 300 to 400 g, group size refers to table 9) from the Centre d'élevage Janvier (France) were allocated randomly to one of three groups. All the animals were anesthetized using ketamine hydrochloride (90 mg/kg) and xylazine (9 mg/kg) intraperitoneally (i.p.). For induction of polymicrobial sepsis, cecal ligation and puncture (CLP) was performed using Rittirsch's protocol with minor modification. A ventral midline incision (1.5 cm) was made to allow exteriorization of the cecum. The cecum is then ligated just below the ileocecal valve and punctured once with an 18-gauge needle. The abdominal cavity is then closed in two layers, followed by fluid resuscitation (3 ml/100 g body of weight of saline injected subcutaneously) and returning the animal to its cage. Sham animals were subjected to surgery, without getting their cecum punctured. CLP animals were randomized between placebo and therapeutic antibody.
The study flow is depicted in FIG. 8. After CLP or sham surgery the animals were allowed to rest for 20 hours with free access to water and food. […] As a safety measure, hemodynamics were monitored invasively and continuously from t=0 till 3 h. […]
Grey scale images were recorded at a depth of 2 cm. […] LVFS was calculated as LV end-diastolic diameter−LV end-systolic diameter/LV end-diastolic diameter and expressed in %. […] All parameters were measured manually. […]

On to “Clone 1967: anti-DPP3 monoclonal antibody, clone 1967 of SEQ ID No.: 37 (AK1967; Procizumab); humanized chains SEQ ID No. 47 and 48”, for which the “hDPP3 binding [RLU]” value in experiment [1] came out at 113.736 RLU. Besides, in the experiment with Male Wistar rats, the mortality rate result was “drastically improves; also recorded: drastically reduces” and the shortening fraction result is on record as “instant normalization; also recorded: drastically improves”.
